According to patent publication US20230104487A1, “11-(4-CHLOROPHENYL)-4-(2,3-DIHYDRO-1H-INDOLE-1-CARBONYL)-3,11-DIMETHYL-5,10,DIOXATRICYCLO[7.4.0.0,2,6,]TRIDECA-1,3,6,8-TETRAEN-13-ONE AND DERIVATIVES AS DESTABILIZER OF CRY1 FOR THE TREATMENT OF CIRCADIAN RHYTHM ASSOCIATED DISEASES AND DISORDERS” (KOC UNIVERSITESI, priority 2019, published 2023):

Legend:
[1] = Plasma pharmacokinetics in mice; assay type: in vivo; details: female, C57BL/6J, mouse, ip, 100 mg/kg, single dose, i.p., read-out: AUC0-24
C57BL/6J mice = experiment: Repeated dose toxicity study, 14-day subacute toxicity; assay type: in vivo; details: 60 mg/kg i.p. for 14 days
Experimental: According to the results of the 5-day maximum tolerated dose determination study, FORMULA I dose was determined as 60 mg/kg for the next 14-day subacute toxicity study. In this study, C57BL/6J mice (n=10) were treated with 60 mg/kg dose of FORMULA I intraperitoneally for 14 days. Control mice (n=5) were only treated with vehicle. Following this, aforementioned procedure (5-day maximum tolerated dose determination study) has been conducted in the same way.

CRY2 = target: T1, CRY2 (Mus musculus, UniProt Q9R194); experiment: Pull-down assay with biotinylated molecule, CRY2-HIS-MYC; assay type: binding; details: 50 μM bFORMULA I, 100 μM FORMULA I competitor
T1 construct: expressed in transfected cells; host or cells: HEK293T (lysate)
T1 sequence (Q9R194 1-592): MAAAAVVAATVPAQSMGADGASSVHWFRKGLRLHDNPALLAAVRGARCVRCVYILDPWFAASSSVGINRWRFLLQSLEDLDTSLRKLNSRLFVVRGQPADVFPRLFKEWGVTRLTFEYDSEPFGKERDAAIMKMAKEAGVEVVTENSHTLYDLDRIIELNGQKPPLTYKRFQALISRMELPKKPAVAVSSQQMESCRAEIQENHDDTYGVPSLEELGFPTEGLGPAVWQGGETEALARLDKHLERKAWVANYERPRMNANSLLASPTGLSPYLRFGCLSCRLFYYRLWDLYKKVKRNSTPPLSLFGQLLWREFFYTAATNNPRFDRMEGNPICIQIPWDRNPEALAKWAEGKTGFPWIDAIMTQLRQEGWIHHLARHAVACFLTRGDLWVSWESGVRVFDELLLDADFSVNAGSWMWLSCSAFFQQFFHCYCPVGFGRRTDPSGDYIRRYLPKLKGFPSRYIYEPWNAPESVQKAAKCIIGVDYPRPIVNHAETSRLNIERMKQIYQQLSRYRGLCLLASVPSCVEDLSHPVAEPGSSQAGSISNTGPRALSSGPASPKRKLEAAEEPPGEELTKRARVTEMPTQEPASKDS
Experimental: 10 μg of Cry1-pcDNA4, Cry2-pcDNA4 or Cry1-T5-pcDNA4 plasmids expressing His and Myc at the C-terminal of CRYs were transfected to HEK293T cell. After 48 h of transfection cells were harvested and lysed in lysis buffer (50 mM Tris pH 7.4, 2 mM EDTA, 1 mM MgCl2, 0.2% NP-40 (v/v), 0.1% sodium deoxycholate (w/v), 1 mM sodium orthovanadate, 1 mM sodium fluoride, and protease inhibitor cocktail (Thermo Scientific)). Lysates were incubated for 10 minutes on ice then mixed gently and incubated for another 10 minutes on ice. Then lysate was centrifuged for 10 minutes at 7000 g at 4° C. 5% of the supernatant was kept for input analysis. Remaining supernatant was divided to three and mixed with 2×binding buffer (100 mM Tris-HCl pH 7.4, 300 mM NaCl, 0.2% NP-40 (v/v), 2 mM sodium orthovanadate, 2 mM sodium fluoride, and protease inhibitor) with 1:1 ratio, incubated with rotation having either of these: a) DMSO, b) biotinylated molecule, c) biotinylated molecule and the competitor for 2 h. During this period NeutrAvidin Agarose resin (Thermo Scientific) was equilibrated with lysis buffer by mixing for 5 minutes via rotation at 4° C. three times. After each mix period, resins were centrifuged at 2500 g at 4° C. for 2 minutes and supernatant was discarded. […] Pulled-down samples were analyzed via western blot.

[2] = Brain tissue levels in mice; assay type: in vivo, mouse; details: 100 mg/kg i.p.
Experimental: C57BL/6J female mice (n=4 per each time point) were treated with 100 mg/kg single dose of FORMULA I intraperitoneally. Blood samples were collected 0, 0.5, 1, 2, 4, 8, 12 and 24 h after administration of FORMULA I by cardiac puncture under isoflurane anesthesia. Plasma was obtained by centrifugation from heparinized tubes and stored at −80° C. until analysis. Brain tissues were quickly removed and stored at −80° C. for further processing. For assessment of the brain exposure of FORMULA I, levels in this tissue were only determined at 2nd (n=2) and 4th (n=2) hours according to maximum concentrations of the molecule in plasma.
Liquid chromatography coupled to tandem mass spectrometry (LC-MS/MS) was used to obtain high mass accuracy data of the analytes in plasma samples for the determination of FORMULA I and Internal standard (IS) Loratadine. […] The optimized conditions of the electrospray ionization (ESI) source were as follows: gas temperature, 300° C.; gas flow, 10 L/min; nebulizer pressure, 25 psi; capillary voltage, 5500 V. ESI in the positive ion mode provides the best results for FORMULA I. For MS-MS detection, the protonated molecules were selected as precursor ions and the most abundant fragment ions obtained at collision energy of 22-20 eV were monitored as the product ions for FORMULA I and IS. […]

Structure (SMILES): Cc1c(C(=O)N2CCc3ccccc32)oc2ccc3c(c12)C(=O)CC(C)(c1ccc(Cl)cc1)O3 (stereo not drawn) [FORMULA I, 11-(4-chlorophenyl)-4-(2,3-dihydro-1H-indole-1-carbonyl)-3,11-dimethyl-5,10,dioxatricyclo[7.4.0.0,2,6,]trideca-1,3,6,8-tetraen-13-one]
- AUC(0-t) [1]: 4.92 ± 3.07 µg·h/mL
- body temperature (mild hypothermia) (C57BL/6J mice; during injections): 33.7-35.4 °C
- highest mean body weight loss (C57BL/6J mice; first day following administration): 3.7%
- physical binding to CRY2 (pull-down) (CRY2): does not bind to CRY2
- blood-brain barrier crossing [2]: crosses the blood-brain barrier
- detection in brain tissue ([2]; 2nd and 4th hours): detected in the brain tissue
